Measured values as given in article PMC6454892 (Nature chemistry, 2018).

Tested on: A. baumannii
Assay: MIC screening against A. baumannii
Assay type: cell-based
Settings: tested separately, unconjugated

## CN[C@H](CC(C)C)C(=O)N[C@H]1C(=O)N[C@@H](CC(N)=O)C(=O)N[C@H]2C(=O)N[C@H]3C(=O)N[C@H](C(=O)N[C@H](C(=O)O)c4cc(O)cc(O)c4-c4cc3ccc4O)[C@H](O)c3ccc(c(Cl)c3)Oc3cc2cc(c3O[C@@H]2O[C@H](CO)[C@@H](O)[C@H](O)[C@H]2O[C@H]2C[C@](C)(N)[C@H](O)[C@H](C)O2)Oc2ccc(cc2Cl)[C@H]1O [vancomycin]
  efficacy against A. baumannii (in words): ineffective
